AC35 data for 93 compounds are collected here from PubChem BioAssay AID624404 (Broad Institute, 2012).

Records with an inconclusive call do not appear. The source made the active and inactive calls.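 Rule for the calls: active = luciferase signal rise whose fitted curve crosses a set activity limit at or below the top valid tested dose; inconclusive = flat fit with 30 to 70% rise, or poor fit; inactive = signal falling, flat within 30%, or crossing above top dose.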

This experiment relates to D54 LucT luciferase reporter counterscreen, luminescence, 24 h. The experiment can be described thus: luciferase activators in glycosylation-insensitive reporter cells, dose response, counter-screen for N-linked glycosylation inhibitor project, D54 LucT cells, luminescence, cherry pick (AID 624404). (In general: The purpose of a counterscreen is to sort out artefacts and off-target activity.)

Regarding `Cc1ccc2c(c1)C(=O)N1[C@H]3c4cc(Br)ccc4OC[C@@H]3[C@H](c3ccccc3)[C@]1(C)C(=O)N2`, the AC35 is 0.241 µM.

`COc1ccc(/C=N\NC(=O)c2sccc2C)cc1Cn1nc(C)cc1C`: the AC35 is 0.28 µM.

With `Cc1ccc2c(c1)[C@H]1[C@H](CO2)[C@H](c2ccccc2)[C@]2(C)C(=O)Nc3ccc(Br)cc3C(=O)N12`, the AC35 was 1.76 µM.

With `COc1cc2[nH]c(C(=O)Nc3ccc(F)cc3)cc2c(OC)c1OC`, the AC35 is 0.0982 µM.

`COc1ccc(N/C=C/C(=O)c2cc(OC)c(OC)c(OC)c2)cc1`: the AC35 was 0.263 µM.

Regarding `COc1ccc(CNCC(=O)Nc2ccccc2-n2cccc2)cc1`, the AC35 was 0.0629 µM.

Turning to `O=S(=O)(Cc1ccc(Cl)cc1Cl)c1ccc(Cl)cc1`, the AC35 is 1.49 µM.

`c1ccc2c(-c3nc4ccccc4[nH]3)cccc2c1`: the AC35 is 0.911 µM.

Take `O=C(Nc1ncccc1O)c1ccc(C(=O)c2ccccc2)cc1`: the AC35 is 0.773 µM.

In the case of `COc1ccc(S(=O)(=O)NCc2ccccn2)cc1NC(=O)c1ccccc1`, the AC35 was 0.834 µM.

For the compound `NNC(=O)c1oc2nc(-c3cccs3)cc(-c3ccco3)c2c1N`, the AC35 is 2.93 µM.

Take `Cc1ccc(Sc2c(CO)c(-c3ccccc3)nn2C)cc1`: the AC35 is 0.166 µM.

Turning to `CC(=O)Nc1sc(NC(=O)c2ccccc2)nc1-c1cccs1`, the AC35 is 8.34 µM.

On to `COc1ccc([C@@H]2[C@@H]3C(=O)N(C(C)(C)C)C(=O)[C@@H]3[C@]3(Cc4ccccc4)C(=O)N(c4cccc(Cl)c4)C(=O)N23)cc1`, for which the AC35 is 2.18 µM.

For the compound `CC1CN(c2nc(-c3ccccc3)nnc2-c2ccccc2)CC(C)O1` (stereo not drawn), the AC35 is 1.39 µM.

As for `CC(C)n1c(/C=C/[C@H](O)C[C@H](O)CC(=O)O)c(-c2ccc(F)cc2)c2ccccc21`, the AC35 was 0.37 µM.

On to `COc1ccc(CC(=O)N(Cc2ccccc2)c2ccc(C)cc2)cc1OC`, for which the AC35 was 1.04 µM.

As for `CCN(CCCNC(=O)CCCOc1cc(=O)n(C)c2ccccc12)Cc1ccccc1`, the AC35 is 0.51 µM.

Regarding `CSc1nnc(-c2sccc2OCc2ccccc2)n1C`, the AC35 is 0.929 µM.

On to `O=C(Nc1cc(Cl)ccc1N1CCOCC1)c1ccc(N2CCCC2=O)cc1`, for which the AC35 was 0.212 µM.

For `COc1ccc(NC(=O)C2Cc3c(-c4cccc(NC(C)=O)c4)ccnc3O2)cc1OC` (stereo not drawn), the AC35 was 1.83 µM.

In the case of `COc1ccc(OC)c2nc3c(C(=O)NCCN(C)C)cccc3nc12`, the AC35 is 0.384 µM.

`Cc1ccc(S(=O)(=O)c2cc3c(=O)n4ccccc4nc3n(CCc3ccccc3)c2=N)cc1`: the AC35 was 0.0759 µM.

As for `CC[C@]12c3[nH]c4cc(CCC(=O)N(C)C)ccc4c3CCN1C(=O)[C@@H](CC(=O)NC/C=C(\C)CCC=C(C)C)C[C@@H]2C(=O)N1CCN(C(=O)c2ccco2)CC1`, the AC35 was 0.267 µM.

`CCn1c2ccccc2c2cc(Nc3cc(C)nc4ncnn34)ccc21`: the AC35 was 0.42 µM.

On to `COc1ccc(/C=C/C(=O)c2c(O)cc(OC)cc2OC)cc1`, for which the AC35 is 3.21 µM.

Consider `Cc1ccc(S(=O)(=O)N2CCN(C(=O)COC(=O)c3cc([N+](=O)[O-])ccc3NCCO)CC2)c(C)c1`, for which the AC35 was 1.46 µM.

On to `CCc1cccc(CC)c1NC(=O)CN1C2CCCC1CC(NC(=O)Nc1cccc(OC)c1)C2` (stereo not drawn), for which the AC35 was 3.14 µM.

Consider `Cn1c(SCC(=O)c2ccccc2)ncc(C(=O)Nc2ccccc2)c1=O`, for which the AC35 is 0.382 µM.

For the compound `O=C(NCCCN1CCOCC1)c1cc(-c2ccccc2)on1`, the AC35 is 3.04 µM.

For `Cc1ccc(C=Nc2ccccc2C(N)=O)cc1`, the AC35 is 2.75 µM.

Turning to `Cn1c(=O)[nH]c(=O)c2c1nc(N(CCO)Cc1ccccc1)n2CCCc1ccccc1`, the AC35 is 0.547 µM.

Regarding `CC[C@H](C)C(=O)O[C@H]1C[C@@H](C)C=C2C=C[C@H](C)[C@H](CC[C@@H]3C[C@@H](O)CC(=O)O3)[C@H]21`, the AC35 was 0.695 µM.

In the case of `OC1CCCN(Cc2ccc3ccc4cccc5ccc2c3c45)C1` (stereo not drawn), the AC35 was 0.89 µM.

Turning to `Cc1ccc2c(CC(=O)NCc3ccco3)coc2c1C`, the AC35 is 4.46 µM.

Regarding `Cc1nc(-c2ccccc2)sc1-c1nc(-c2ccncc2)ncc1S(=O)(=O)c1ccccc1`, the AC35 is 0.411 µM.

`Cc1ccc(-c2nc(NCCCN(C)C)c3ccccc3n2)cc1`: the AC35 was 3.89 µM.

As to `O=C(NCCc1ccccc1)c1cc(-c2ccco2)on1`, the AC35 was 1.01 µM.

With `CC(C)(C)c1ccc(C(=O)NNC(=O)c2cccc(Br)c2)cc1`, the AC35 was 5.04 µM.

In the case of `CCN1C(=O)Nc2cccc3cccc1c23`, the AC35 was 3.14 µM.

For the compound `O=C(Nc1cc(=O)[nH]c(=O)[nH]1)c1cc(Cl)ccc1Cl`, the AC35 is 3.15 µM.

Take `CCOc1ccc(C(=O)n2cc(C(=O)OC)c3ccccc32)cc1`: the AC35 is 6.03 µM.

As for `C=CCOc1ccc(C(=O)Nc2ccccc2C(=O)NCc2cccnc2)cc1`, the AC35 was 0.109 µM.

Turning to `COc1cccc(C2=CC(c3cccc(OC)c3OC)n3nnnc3N2)c1` (stereo not drawn), the AC35 is 0.765 µM.

In the case of `CC12CC[C@H]3[C@@H](CCC4(O)C[C@H](O)CCC34/C=N/NC(=O)c3ccccc3[N+](=O)[O-])C1(O)CCC2C1=CC(=O)OC1` (stereo partly drawn), the AC35 is 4.03 µM.

On to `CCN1C(=O)CCN(C2CCCC2)c2nc(Nc3ccc(C(=O)NC4CCN(C)CC4)cc3OC)ncc21`, for which the AC35 is 0.226 µM.

As for `COc1ccc(C(=O)N/N=C/C23CC[C@@H](O)CC2(O)CC[C@@H]2[C@@H]3CCC3(C)C(C4=CC(=O)OC4)CCC23O)cc1` (stereo partly drawn), the AC35 was 0.388 µM.

As to `COc1cc2cnc(-c3ccccc3)cc2cc1OC`, the AC35 is 2.54 µM.

Regarding `COc1cc(-c2nccc3cc4c(cc23)OCO4)cc(OC)c1OC`, the AC35 is 0.0617 µM.

On to `Cc1cc(=O)oc2cc(NC(=O)c3cccc(S(C)(=O)=O)c3)ccc12`, for which the AC35 was 0.526 µM.

As to `Cc1c(Cl)cccc1Nc1nc(N)nc(CN2CCc3ccccc3C2)n1`, the AC35 is 0.614 µM.

Turning to `COc1ccc(-n2c(=S)[nH]c3cc(C(=O)Nc4ccc(F)cc4)ccc3c2=O)c(OC)c1`, the AC35 was 1.47 µM.

Turning to `COc1ccccc1-c1c(C#N)c(N)nc2c1CCc1ccccc1-2`, the AC35 is 1.11 µM.

In the case of `CCOC(=O)n1c(=O)n(Cc2ccc(OC)cc2)c2ccccc21`, the AC35 is > 19.5 µM (inactive).

Turning to `O=C(CNC(=O)c1ccc(Br)o1)Nc1cccc(-c2cnc3ccccc3n2)c1`, the AC35 was 3.53 µM.

In the case of `CC(=O)c1ccc(OCC(O)CN2CCN(CCN3C(=O)c4cccc5cccc(c45)C3=O)CC2)cc1` (stereo not drawn), the AC35 is 4.42 µM.

Regarding `CCOC(=O)c1c(C)[nH]c(-c2csc(N)n2)c1C`, the AC35 is 0.787 µM.

Take `O=C(NCc1ccccc1Br)c1cccc2c1C(=O)c1ccc(-c3ccc(OC(F)(F)F)cc3)cc1S2(=O)=O`: the AC35 was 0.408 µM.

For `COc1cccc(-c2cnc3c(NC(C)=O)cc(-c4cc(F)ccc4OC)cn23)c1`, the AC35 was 4.27 µM.

On to `C[C@@]12C(=O)Nc3cc(Cl)ccc3C(=O)N1[C@H]1c3cc(Cl)ccc3OC[C@@H]1[C@@H]2c1ccccc1`, for which the AC35 is 1.44 µM.

With `OCC1OC(n2ccc3c(SCc4ccccc4)ncnc32)C(O)C1O` (stereo not drawn), the AC35 was 0.148 µM.

For the compound `CC(C)n1cc(NC(=O)c2cc(-c3ccccc3)on2)cn1`, the AC35 is 0.568 µM.

As to `O=C(Nc1ncccc1O)c1ccc(S(=O)(=O)Nc2ccccc2)cc1`, the AC35 was 2.19 µM.

For `Cc1ccc(SCC(=O)Nc2ccc(-c3nc4ccccc4[nH]3)cc2)cc1`, the AC35 is 0.337 µM.

As for `COC(=O)[C@@H]1C[C@H]1[C@@H](NP(=O)(c1ccccc1)c1ccccc1)c1ccccc1`, the AC35 is 3.1 µM.

On to `c1ccc(N=Nc2ccc3cccccc2-3)cc1`, for which the AC35 was 0.355 µM.

For `Cc1ccc(C(=O)NCc2nnc(SCC(=O)NC(C)c3ccccc3)n2C)cc1` (stereo not drawn), the AC35 was 2.43 µM.

For the compound `O=C(NCc1cccs1)C1Cc2c(-c3ccc(Cl)cc3)ccnc2O1` (stereo not drawn), the AC35 was 0.166 µM.

In the case of `COc1ccc(CC(=O)NCc2ccc(-n3cccc3)cc2)cc1OC`, the AC35 was 1.61 µM.

As for `CCc1ccc(/C=N/NC(=O)c2nnn(-c3nonc3N)c2C(C)C)cc1`, the AC35 is 2.63 µM.

Turning to `Cc1ccc(S/C=C\C(=O)c2ccccc2)cc1`, the AC35 is 0.135 µM.

For `COc1cccc(C(=O)Nc2sc3c(c2C#N)CCN(C(C)=O)C3)c1`, the AC35 was 0.0635 µM.

Turning to `O=S(=O)([N-]c1nc2ccccc2nc1-n1cc[n+](Cc2ccccc2)c1)c1ccccc1`, the AC35 is 0.648 µM.

As for `O=C(/C=C/c1cccc([N+](=O)[O-])c1)c1ccc2c(c1)OCCO2`, the AC35 was 0.247 µM.

`O=C(NC1CCCCCC1)c1c2c(nc3ccccc13)CCN(Cc1ccccc1)C2`: the AC35 is 3.45 µM.

On to `C[C@@H](NC(=O)c1ncn2c1c(=O)[nH]c1ccc(Br)cc12)c1ccccc1`, for which the AC35 was 0.21 µM.

On to `COc1cc2c(cc1OC)C(c1cccs1)N(C(=O)c1cccc(S(=O)(=O)N(C)C)c1)CC2` (stereo not drawn), for which the AC35 is 0.64 µM.

Take `Cc1ccc(Nc2nc(N)nc(CN3CCN(Cc4ccccc4)CC3)n2)cc1Cl`: the AC35 is 0.107 µM.

On to `CC(=O)Nc1ccc(C(=O)N/N=C/c2ccccc2OCc2ccccc2)cc1`, for which the AC35 was 4.36 µM.

As to `COc1ccc(C(=O)/C=C/c2ccc(OC)c(O)c2)c(F)c1`, the AC35 is 0.219 µM.

With `COc1cc(CN2CCc3ccccc3C2)ccc1O`, the AC35 is 2 µM.

For the compound `N#Cc1c(N)n(CCc2ccc(F)cc2)c2nc3ccccc3nc12`, the AC35 is 1.88 µM.

Regarding `C[C@@]12C(=O)Nc3ccc(F)cc3C(=O)N1[C@H]1c3cc(Cl)ccc3OC[C@@H]1[C@@H]2c1ccccc1`, the AC35 is 1.82 µM.

As to `COc1ccc(C(=O)/C=C/c2ccc(-c3ccccc3)cc2)cc1CSCC(=O)O`, the AC35 is 0.875 µM.

With `Nc1c2ccccc2nc2ccccc12`, the AC35 is 4.9 µM.

`Nc1cc2c(cc1Br)-c1c(C(=O)O)cccc1C2O` (stereo not drawn): the AC35 was 2.68 µM.

As to `CCn1c(=O)c2cc(C(=O)NCCCOC)sc2c2ccccc21`, the AC35 is 0.177 µM.

For the compound `O=C(N/N=C/c1ccc(F)cc1)c1sccc1OCc1ccc(F)cc1`, the AC35 is 1.58 µM.

In the case of `COc1cc(-c2cc3nc(NCCc4ccncc4)ccn3n2)cc(OC)c1OC`, the AC35 is 0.806 µM.

On to `COC1C(O)C(C)OC(OC2C(Oc3cccc4c(O)c5c(=O)oc6ccc(C)c7c(=O)oc(c34)c5c67)OC(C)C(O)C2O)C1O` (stereo not drawn), for which the AC35 was 0.376 µM.

In the case of `O=C1Cc2c(-c3ccccc3)cc(-c3cccc(Cl)c3)nc2-c2ccccc2N1`, the AC35 is 5.37 µM.

For `Cc1ccc(O)c(C(=O)C=Cc2ccccc2)c1`, the AC35 was 0.00829 µM.

Take `O=C(c1ncn(Cc2ccccc2)c1C(=O)N1CCN(c2ccccc2)CC1)N1CCN(c2ccccc2)CC1`: the AC35 was 1.23 µM.
